Measurements from PubChem BioAssay (NCI).
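Tested at 5 concentrations; 48 h exposure; 96-well plates; endpoints linearly interpolated, else capped at highest concentration. Definition used: TGI = concentration required for complete inhibition of growth.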

Columns and labels:
Experiment in all cases: DTP human tumour cell line panel, 48 h
[1] = system: MOLT-4 leukemia
[2] = system: EKVX NSCLC
[3] = system: SK-OV-3 ovarian
[4] = system: M14 melanoma
[5] = system: MALME-3M melanoma
[6] = system: SNB-19 CNS
[7] = system: KM20L2 colon
[8] = system: UACC-257 melanoma
[9] = system: TK-10 renal
[10] = system: RPMI-8226 leukemia
[11] = system: SK-MEL-2 melanoma
[12] = system: DMS 273 small cell lung
[13] = system: RXF 393 renal
[14] = system: SW-620 colon
[15] = system: CAKI-1 renal
[16] = system: DMS 114 small cell lung
[17] = system: IGROV1 ovarian
[18] = system: RXF-631 renal
[19] = system: NCI-H460 lung
[20] = system: COLO 205 colon
[21] = system: OVCAR-4 ovarian
[22] = system: HOP-62 NSCLC
[23] = system: A498 renal
[24] = system: U251 CNS
[25] = system: HOP-18 NSCLC
[26] = system: 786-0 renal
[27] = system: SK-MEL-5 melanoma
[28] = system: OVCAR-5 ovarian
[29] = system: SNB-75 CNS
[30] = system: OVCAR-8 ovarian
[31] = system: HCT-15 colon
[32] = system: NCI-H23 lung
[33] = system: SNB-78 CNS
[34] = system: SF-295 CNS
[35] = system: KM12 colon
[36] = system: OVCAR-3 ovarian
[37] = system: HCC-2998 colon
[38] = system: CCRF-CEM leukemia
[39] = system: SK-MEL-28 melanoma
[40] = system: LOX IMVI melanoma
[41] = system: SN12C renal
[42] = system: SF-268 CNS
[43] = system: K-562 leukemia
[44] = system: ACHN renal
[45] = system: UACC-62 melanoma
[46] = system: M19-MEL melanoma
[47] = system: DLD-1 colon
[48] = system: LXFL 529 NSCLC
[49] = system: HT29 colon
[50] = system: A549 NSCLC
[51] = system: SF-539 CNS
[52] = system: UO-31 renal
[53] = system: HL-60(TB) leukemia
[54] = system: HCT-116 colon
[55] = system: HOP-92 NSCLC
[56] = system: NCI-H522 lung
[57] = system: NCI-H226 lung
[58] = system: SR leukemia

## CC1CCCP(=O)(c2ccccc2)CC1 (stereo not drawn)
[1]
  TGI: > 100 µM
[2]
  TGI: > 100 µM
[3]
  TGI: > 100 µM
[4]
  TGI: > 100 µM
[5]
  TGI: > 100 µM
[6]
  TGI: > 100 µM
[7]
  TGI: > 100 µM
[8]
  TGI: > 100 µM
[9]
  TGI: > 100 µM
[10]
  TGI: > 100 µM
[11]
  TGI: > 100 µM
[12]
  TGI: > 100 µM
[13]
  TGI: > 100 µM
[14]
  TGI: > 100 µM
[15]
  TGI: > 100 µM
[16]
  TGI: > 100 µM
[17]
  TGI: > 100 µM
[18]
  TGI: > 100 µM
[19]
  TGI: > 100 µM
[20]
  TGI: > 100 µM
[21]
  TGI: > 100 µM
[22]
  TGI: > 100 µM
[23]
  TGI: > 100 µM
[24]
  TGI: > 100 µM
[25]
  TGI: 0.958 µM
[26]
  TGI: > 100 µM
[27]
  TGI: > 100 µM
[28]
  TGI: > 100 µM
[29]
  TGI: > 100 µM
[30]
  TGI: > 100 µM
[31]
  TGI: > 100 µM
[32]
  TGI: > 100 µM
[33]
  TGI: > 100 µM
[34]
  TGI: > 100 µM
[35]
  TGI: > 100 µM
[36]
  TGI: > 100 µM
[37]
  TGI: > 100 µM
[38]
  TGI: > 100 µM
[39]
  TGI: > 100 µM
[40]
  TGI: > 100 µM
[41]
  TGI: > 100 µM
[42]
  TGI: > 100 µM
[43]
  TGI: > 100 µM
[44]
  TGI: > 100 µM
[45]
  TGI: > 100 µM
[46]
  TGI: > 100 µM
[47]
  TGI: > 100 µM
[48]
  TGI: > 100 µM
[49]
  TGI: > 100 µM
[50]
  TGI: > 100 µM
[51]
  TGI: > 100 µM
[52]
  TGI: > 100 µM

## O=C(CCc1n[nH]c(=S)o1)Nc1cc(Cl)c(Cl)cc1Cl
[1]
  TGI: > 100 µM
[2]
  TGI: > 100 µM
[53]
  TGI: > 100 µM
[3]
  TGI: > 100 µM
[4]
  TGI: > 100 µM
[5]
  TGI: > 100 µM
[6]
  TGI: > 100 µM
[7]
  TGI: > 100 µM
[8]
  TGI: > 100 µM
[9]
  TGI: > 100 µM
[10]
  TGI: 50.8 µM
[54]
  TGI: 30 µM
[12]
  TGI: 72.5 µM
[14]
  TGI: 31.4 µM
[55]
  TGI: > 100 µM
[15]
  TGI: > 100 µM
[16]
  TGI: > 100 µM
[17]
  TGI: > 100 µM
[18]
  TGI: > 100 µM
[19]
  TGI: > 100 µM
[20]
  TGI: > 100 µM
[21]
  TGI: > 100 µM
[56]
  TGI: > 100 µM
[22]
  TGI: > 100 µM
[23]
  TGI: 91.8 µM
[24]
  TGI: > 100 µM
[25]
  TGI: > 100 µM
[26]
  TGI: 63.6 µM
[57]
  TGI: > 100 µM
[27]
  TGI: > 100 µM
[28]
  TGI: > 100 µM
[29]
  TGI: > 100 µM
[30]
  TGI: > 100 µM
[31]
  TGI: 49.9 µM
[32]
  TGI: > 100 µM
[33]
  TGI: > 100 µM
[34]
  TGI: > 100 µM
[35]
  TGI: > 100 µM
[36]
  TGI: > 100 µM
[37]
  TGI: > 100 µM
[38]
  TGI: > 100 µM
[39]
  TGI: > 100 µM
[41]
  TGI: > 100 µM
[42]
  TGI: > 100 µM
[43]
  TGI: 49 µM
[44]
  TGI: > 100 µM
[45]
  TGI: > 100 µM
[46]
  TGI: > 100 µM
[47]
  TGI: 86.3 µM
[48]
  TGI: > 100 µM
[49]
  TGI: > 100 µM
[50]
  TGI: > 100 µM
[51]
  TGI: > 100 µM
[52]
  TGI: > 100 µM

## C/C(=N\NC(C)(C)C)c1sc(-c2nc(C)c(/C(C)=N/NC(C)(C)C)s2)nc1C
[1]
  TGI: > 100 µM
[2]
  TGI: > 100 µM
[53]
  TGI: > 100 µM
[3]
  TGI: > 100 µM
[4]
  TGI: > 100 µM
[5]
  TGI: > 100 µM
[6]
  TGI: > 100 µM
[7]
  TGI: > 100 µM
[8]
  TGI: > 100 µM
[10]
  TGI: > 100 µM
[54]
  TGI: > 100 µM
[12]
  TGI: > 100 µM
[13]
  TGI: > 100 µM
[14]
  TGI: > 100 µM
[55]
  TGI: > 100 µM
[15]
  TGI: > 100 µM
[58]
  TGI: > 100 µM
[16]
  TGI: > 100 µM
[17]
  TGI: > 100 µM
[18]
  TGI: > 100 µM
[20]
  TGI: > 100 µM
[21]
  TGI: > 100 µM
[56]
  TGI: > 100 µM
[23]
  TGI: > 100 µM
[24]
  TGI: > 100 µM
[25]
  TGI: > 100 µM
[26]
  TGI: > 100 µM
[57]
  TGI: > 100 µM
[27]
  TGI: > 100 µM
[29]
  TGI: > 100 µM
[30]
  TGI: > 100 µM
[31]
  TGI: > 100 µM
[32]
  TGI: > 100 µM
[33]
  TGI: > 100 µM
[34]
  TGI: > 100 µM
[36]
  TGI: > 100 µM
[37]
  TGI: > 100 µM
[38]
  TGI: > 100 µM
[39]
  TGI: > 100 µM
[40]
  TGI: > 100 µM
[41]
  TGI: > 100 µM
[42]
  TGI: > 100 µM
[43]
  TGI: > 100 µM
[44]
  TGI: > 100 µM
[45]
  TGI: > 100 µM
[46]
  TGI: > 100 µM
[47]
  TGI: > 100 µM
[48]
  TGI: > 100 µM
[49]
  TGI: > 100 µM
[50]
  TGI: > 100 µM
[51]
  TGI: > 100 µM
[52]
  TGI: > 100 µM
